In patent publication US20100190856A1, “Novel Polyhydroxylated Compounds as Fatty Acid Synthase (FASN) Inhibitors” (UNIVERSIDAD COMPLUTENSE DE MADRID, priority 2007, published 2010):

Assays:
[1] = tested on: SK-Br3 breast cancer cells; assay: MTT cytotoxicity assay, SK-Br3 breast cancer cells; format: cell-based, human; conditions: Homo sapiens, SK-BR-3, 48 h, MTT, 48 h, read-out: IC50, growth inhibition, SK-Br3
Experimental: (§1) MCF-7 and MDA-MB-231 breast cancer cells were obtained from the American Type Culture Collection (ATCC) and were routinely grown in Dulbecco's modified Eagle's medium (DMEM, Gibco) containing 10% fetal bovine serum (FBS, Bio-Whittaker), 1% L-glutamine, 1% sodium pyruvate, 50 U/mL penicillin and 50 μg/mL streptomycin. SK-Br3 breast cancer cells were obtained from Eucellbank (Universidad de Barcelona, Spain) and were passaged in McCoy's 5 A medium containing 10% FBS, 1% L-glutamine, 1% sodium pyruvate, 50 U/mL penicillin and 50 μg/mL streptomycin. Non-malignant fibroblasts N-1 were obtained from Eucellbank (Universidad de Barcelona, Spain) and were passaged in DMEM medium containing 10% FBS, 1% L-glutamine, 1% sodium pyruvate, 50 U/mL penicillin and 50 μg/mL streptomycin. The cells remained free of Mycoplasma and were propagated in adherent culture according to established protocols. Cells were maintained at 37° C. in a humidified atmosphere of 95% air and 5% CO2.
(§2) Drug sensitivity was determined using a standard colorimetric MTT (3-4,5-dimethylthiazol-2-yl-2,5-diphenyltetrazolium bromide) assay. Briefly, cells were plated out at a density of 7×10^3 cells/100 μL/well in 96-well microtitre plates and allowed an overnight period for attachment. Then the medium was removed and fresh medium along with various concentrations of the tested compound were added to the cultures for a period of 48 h. Following the treatment, the cells were fed with drug-free medium (100 μL/well) and 10 μL of MTT solution (5 mg/mL; Sigma, St. Louis, Mo.), and the incubation was prolonged for 3 h at 37° C. After carefully removing the supernatants, the MTT-formazan crystals formed by metabolically viable cells were dissolved in dimethyl sulphoxide (100 μL/well) and the absorbance was measured at 570 nm in a multi-well plate reader (Model Anthos Labtec 2010 1.7 reader).

[2] = tested on: MCF-7 breast cancer cells; assay: MTT cytotoxicity assay, MCF-7 breast cancer cells; format: cell-based, human; conditions: Homo sapiens, MCF7, MCF-7 cells, 48 h, read-out: IC50, growth inhibition, MCF-7
Experimental: as §1, §2

[3] = tested on: MDA-MB-231 breast cancer cells; assay: MTT cytotoxicity assay, MDA-MB-231 breast cancer cells; format: cell-based, human; conditions: Homo sapiens, MDA-MB-231 cells, 48 h, read-out: IC50, growth inhibition, MDA-MB-231
Experimental: as §1, §2

[4] = tested on: Non-malignant fibroblasts N-1; assay: MTT cytotoxicity assay, non-malignant fibroblasts N-1; format: cell-based; conditions: for IC50: Fibroblast, non-malignant fibroblasts, MTT, 48 h, read-out: IC50, growth inhibition, Fibroblasts; for effects in cell death / morphology changes in non-malignant cells: up to doses three-fold their cytotoxic IC50 value in tumoral cells
Experimental: as §1, §2

FASN = target: T1, FASN (Homo sapiens, UniProt P49327); assay: Fatty acid synthase activity assay in SK-Br3 cells (NADPH oxidation, particle-free supernatants); format: cell-based; set-up: FASN activity, % of control cells / FASN activity reduced to / reduction of FASN activity: concentration or dose not given beside the values
T1 construct: endogenous in cells; host or cells: SK-Br3 breast cancer cells
T1 sequence (P49327 whole entry): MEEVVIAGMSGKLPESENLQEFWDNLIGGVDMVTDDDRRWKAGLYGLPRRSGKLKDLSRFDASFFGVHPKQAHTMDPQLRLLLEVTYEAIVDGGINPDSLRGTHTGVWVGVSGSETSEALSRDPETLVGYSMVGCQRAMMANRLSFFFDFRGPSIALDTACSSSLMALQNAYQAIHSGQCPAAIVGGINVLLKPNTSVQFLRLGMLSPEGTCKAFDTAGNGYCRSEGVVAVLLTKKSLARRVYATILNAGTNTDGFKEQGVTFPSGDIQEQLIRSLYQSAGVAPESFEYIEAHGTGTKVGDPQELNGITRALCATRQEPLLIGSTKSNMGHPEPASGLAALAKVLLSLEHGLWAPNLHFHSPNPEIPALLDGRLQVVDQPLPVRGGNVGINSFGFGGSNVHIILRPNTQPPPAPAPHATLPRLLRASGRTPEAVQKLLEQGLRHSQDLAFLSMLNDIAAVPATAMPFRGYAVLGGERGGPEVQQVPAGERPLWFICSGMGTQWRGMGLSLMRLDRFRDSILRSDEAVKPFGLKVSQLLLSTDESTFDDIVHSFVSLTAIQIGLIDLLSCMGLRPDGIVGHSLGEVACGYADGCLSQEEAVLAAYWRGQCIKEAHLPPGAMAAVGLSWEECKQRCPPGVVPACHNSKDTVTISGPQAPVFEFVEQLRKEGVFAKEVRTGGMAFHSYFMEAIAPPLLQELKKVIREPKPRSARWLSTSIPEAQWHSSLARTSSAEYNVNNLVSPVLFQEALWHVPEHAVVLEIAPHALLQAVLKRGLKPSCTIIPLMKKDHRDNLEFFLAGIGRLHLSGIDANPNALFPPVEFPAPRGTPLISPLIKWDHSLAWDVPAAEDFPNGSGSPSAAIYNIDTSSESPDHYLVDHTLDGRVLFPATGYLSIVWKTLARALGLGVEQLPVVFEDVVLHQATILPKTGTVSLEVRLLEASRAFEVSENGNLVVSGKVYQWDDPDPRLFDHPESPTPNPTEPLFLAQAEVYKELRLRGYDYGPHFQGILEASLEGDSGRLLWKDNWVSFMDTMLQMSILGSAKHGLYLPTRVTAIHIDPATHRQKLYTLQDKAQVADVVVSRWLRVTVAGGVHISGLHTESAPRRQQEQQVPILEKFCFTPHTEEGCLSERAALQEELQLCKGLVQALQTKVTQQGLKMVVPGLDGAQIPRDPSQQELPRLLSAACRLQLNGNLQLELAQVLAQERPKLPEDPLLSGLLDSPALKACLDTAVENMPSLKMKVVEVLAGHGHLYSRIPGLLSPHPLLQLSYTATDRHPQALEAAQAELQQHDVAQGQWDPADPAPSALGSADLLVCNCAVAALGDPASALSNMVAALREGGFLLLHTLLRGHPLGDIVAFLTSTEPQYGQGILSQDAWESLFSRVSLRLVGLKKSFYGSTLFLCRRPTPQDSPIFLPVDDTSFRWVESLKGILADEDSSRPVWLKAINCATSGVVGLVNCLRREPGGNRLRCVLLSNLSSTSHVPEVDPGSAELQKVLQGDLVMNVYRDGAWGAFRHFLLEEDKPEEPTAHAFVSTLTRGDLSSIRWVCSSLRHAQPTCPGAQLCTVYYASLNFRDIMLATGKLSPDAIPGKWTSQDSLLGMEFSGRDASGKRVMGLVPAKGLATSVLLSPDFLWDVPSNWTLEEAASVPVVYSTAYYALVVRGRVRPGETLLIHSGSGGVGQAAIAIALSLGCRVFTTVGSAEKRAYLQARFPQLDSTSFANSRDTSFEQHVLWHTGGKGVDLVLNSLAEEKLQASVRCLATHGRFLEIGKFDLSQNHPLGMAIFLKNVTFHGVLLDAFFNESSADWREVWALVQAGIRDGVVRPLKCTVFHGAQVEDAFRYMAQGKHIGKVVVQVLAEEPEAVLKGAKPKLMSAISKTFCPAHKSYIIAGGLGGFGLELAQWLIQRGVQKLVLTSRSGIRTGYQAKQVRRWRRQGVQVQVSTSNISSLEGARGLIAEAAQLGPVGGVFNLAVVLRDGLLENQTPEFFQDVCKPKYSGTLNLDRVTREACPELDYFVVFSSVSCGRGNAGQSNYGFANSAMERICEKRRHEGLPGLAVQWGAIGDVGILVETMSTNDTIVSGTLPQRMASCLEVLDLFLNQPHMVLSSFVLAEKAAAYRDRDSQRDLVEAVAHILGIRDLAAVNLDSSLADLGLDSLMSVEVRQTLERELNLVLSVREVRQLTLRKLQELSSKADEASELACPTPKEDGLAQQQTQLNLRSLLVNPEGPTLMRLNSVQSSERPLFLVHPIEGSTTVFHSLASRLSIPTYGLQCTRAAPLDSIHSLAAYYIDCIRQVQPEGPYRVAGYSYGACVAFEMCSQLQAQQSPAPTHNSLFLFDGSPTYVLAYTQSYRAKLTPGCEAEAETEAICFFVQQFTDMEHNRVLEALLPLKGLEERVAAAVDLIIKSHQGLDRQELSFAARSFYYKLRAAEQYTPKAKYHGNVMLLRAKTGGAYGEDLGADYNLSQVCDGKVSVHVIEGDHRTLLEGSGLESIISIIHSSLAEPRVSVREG
Experimental: FASN activity of compounds a, b, e, f, h, i, k, m and q was assayed in particle-free supernatants by recording spectrophotometrically at 37° C. (Lambda Bio 20, Perkin Elmer, EUA; using UV Kinlab 2.80.02 software) the decrease of A340nm due to the oxidation of NADPH, as we previously described. After 6, 12, 24 h of exposure to the tested compound, the cells were harvested by treatment with trypsin-EDTA solution, pelleted by centrifugation, washed twice and resuspended in cold PBS. The cells were sonicated during 30 min at 4° C. (PSelecta ultrasons) and centrifuged for 15 min at 4° C. to keep supernatants particle-free. A sample was taken to measure the protein content by a BioRad assay (Bio-Rad Laboratories). One-hundred and twenty micrograms of protein were pre-incubated during 15 min at 37° C. in 0.2 M of potassium phosphate buffer, pH 7.0, for temperature equilibration. The sample was then added to the reaction mixture: 200 mM potassium phosphate buffer, pH 7.0, 1 mM EDTA (Sigma), 1 mM dithiothreitol (Sigma), 30 μM acetyl-CoA (Sigma), 0.24 mM NADPH (Sigma), in 0.3 mL reaction volume were monitored at 340 nm for 3 min to measure the background NADPH oxidation. After the addition of 50 μM of malonyl-CoA (Sigma), the reaction was assayed for additional 10 min to determine FASN-dependent oxidation of NADPH. Rates were corrected for the background rate of NADPH oxidation in the presence of acetyl-CoA. FASN activity was expressed in nmol NADPH oxidized min^−1 mg protein^−1.

| Compound | IC50 [1] | IC50 [2] | IC50 [3] | IC50 [4] | effects in cell death / morphology changes in non-malignant cells [4] | inhibition of FASN activity (in words) (FASN; SK-Br3 cells treated 6, 12 and 24 hours) | FASN activity reduced to (FASN; SK-Br3 cells, 12 h exposure) |
| --- | --- | --- | --- | --- | --- | --- | --- |
| Cc1cc(OC(=O)c2cc(O)c(O)c(O)c2)ccc1OC(=O)c1cc(O)c(O)c(O)c1 [c, 2-methyl-1,4-bis[(3,4,5-trihydroxybenzoyl)oxy]benzene] | 23.3 ± 2.1 µM | 4.5 µM | 54.7 ± 7.6 µM | > 100 µM | No significant effects | – | – |
| COC(=O)c1cc(OC(=O)c2cc(O)c(O)c(O)c2)c2ccccc2c1OC(=O)c1cc(O)c(Br)c(O)c1 [cc, methyl 1-[(4-bromo-3,5-dihydroxybenzoyl)oxy]-4-[(3,4,5-trihydroxybenzoyl)oxy]-2-naphthoate] | 16.5 ± 4.9 µM | – | – | 91.5 ± 2.1 µM | No significant effects | – | – |
| COc1cc(OC(=O)c2cc(O)c(O)c(O)c2)ccc1OC(=O)c1cc(O)c(O)c(O)c1 [d, 2-methoxy-1,4-bis[(3,4,5-trihydroxybenzoyl)oxy]benzene] | 8.3 ± 1.1 µM | 30 ± 0.1 µM | 28 ± 1 µM | > 50 µM | No significant effects | – | – |
| COC(=O)c1cc(OC(=O)c2cc(O)c(O)c(O)c2)c2ccccc2c1OC(=O)c1cccc(O)c1 [dd, methyl 1-[(3-hydroxybenzoyl)oxy]-4-[(3,4,5-trihydroxybenzoyl)oxy]-2-naphthoate] | 15.5 ± 3.5 µM | – | – | 39.5 ± 6.4 µM | No significant effects | – | – |
| COC(=O)c1cc(OC(=O)c2cc(O)c(O)c(O)c2)c2ccccc2c1OC(=O)c1ccc(O)cc1 [ee, methyl 1-[(4-hydroxybenzoyl)oxy]-4-[(3,4,5-trihydroxybenzoyl)oxy]-2-naphthoate] | 33 ± 1.4 µM | – | – | 67.5 ± 4.9 µM | No significant effects | – | – |
| O=C(Oc1cc(OC(=O)c2ccc(O)c(O)c2)c2ccccc2c1)c1ccc(O)c(O)c1 [h, 1,3-bis[(3,4-dihydroxybenzoyl)oxy]naphthalene] | 20.7 ± 11.5 µM | – | 19 ± 1.1 µM | 105 µM | No significant effects | inhibit FASN activity | 77% |
| O=C(Oc1ccc2cc(OC(=O)c3cc(O)c(O)c(O)c3)ccc2c1)c1cc(O)c(O)c(O)c1 [l, 2,6-bis[(3,4,5-trihydroxybenzoyl)oxy]naphthalene] | 5.5 ± 1 µM | 13 ± 1.8 µM | 15.3 ± 1 µM | > 200 µM | No significant effects | – | – |
| O=C(Oc1ccc(-c2ccc(OC(=O)c3cc(O)cc(O)c3)cc2)cc1)c1cc(O)cc(O)c1 [s, 4,4′-bis[(3,5-dihydroxybenzoyl)oxy]-1,1′-biphenyl] | 7.3 ± 2 µM | – | 5.75 ± 2 µM | 33 ± 3 µM | No significant effects | – | – |
| O=C(Oc1cc(OC(=O)c2cc(O)c(Br)c(O)c2)c2ccccc2c1)c1cc(O)c(Br)c(O)c1 [w, 1,3-bis[(4-bromo-3,5-dihydroxybenzoyl)oxy]naphthalene] | 46.7 ± 11.7 µM | – | – | 79.5 ± 14.8 µM | No significant effects | – | – |
| O=C(Oc1cc2c(c(OC(=O)c3cc(O)c(O)c(O)c3)c1)CCCC2)c1cc(O)c(O)c(O)c1 [y, 1,3-bis[(3,4,5-trihydroxybenzoyl)oxy]-5,6,7,8-tetrahydronaphthalene] | 31 ± 3 µM | 81 ± 16 µM | 98 ± 11 µM | > 150 µM | No significant effects | – | – |
| O=C(Oc1ccc(OC(=O)c2cc(O)c(O)c(O)c2)c2c1CCCC2)c1cc(O)c(O)c(O)c1 [z, 1,4-bis[(3,4,5-trihydroxybenzoyl)oxy]-5,6,7,8-tetrahydronaphthalene] | 41 ± 3 µM | 43 ± 10 µM | 104 ± 10 µM | 128 ± 32 µM | No significant effects | – | – |
